US10045974B2, “2-amino-6-(difluoromethyl)-5,5-difluoro-6-phenyl-3,4,5,6-tetrahydropyridines as BACE1 inhibitors” (H. Lundbeck A/S, priority 2014, dated 2018)

Target: BACE1 (Homo sapiens (Human), UniProt P56817)
Assay: BACE1 efficacy assay (FRET-based, commercial BACE1 kit)
Format: biochemical
Settings: test compound 10 μM
Experimental: The efficacy assay was performed as a FRET-based assay using a commercially available BACE1 kit (Life Technologies, P2985). 2 μl test compound at 10 μM (final concentration) and 15 μl BACE1 enzyme from the kit (final concentration 3 nM) were preincubated for 15 minutes at room temperature before addition of 15 μl of substrate from the kit (250 nM final concentration) and incubated for additional 90 minutes at room temperature. The assay plate was subsequently read in a Pherastar (Ex540/Em590). The enzyme activity observed in presence of test compound were normalized to the enzyme activity observed in presence of buffer and 10 μM (final concentration) of the high affinity BACE1 reference inhibitor (S)-6-[3-Chloro-5-(5-prop-1-ynyl-pyridin-3-yl)-thiophen-2-yl] -2-imino-3,6-dimethyl-tetra-hydropyrimidin-4-one, respectively. The efficacy of the test compounds was evaluated at 10 μM (final concentration) and defined as the percent inhibition of the enzyme activity using the equation %inhibition=100% -normalized enzyme activity in percent.

Chain of BACE1 (P56817 46-501): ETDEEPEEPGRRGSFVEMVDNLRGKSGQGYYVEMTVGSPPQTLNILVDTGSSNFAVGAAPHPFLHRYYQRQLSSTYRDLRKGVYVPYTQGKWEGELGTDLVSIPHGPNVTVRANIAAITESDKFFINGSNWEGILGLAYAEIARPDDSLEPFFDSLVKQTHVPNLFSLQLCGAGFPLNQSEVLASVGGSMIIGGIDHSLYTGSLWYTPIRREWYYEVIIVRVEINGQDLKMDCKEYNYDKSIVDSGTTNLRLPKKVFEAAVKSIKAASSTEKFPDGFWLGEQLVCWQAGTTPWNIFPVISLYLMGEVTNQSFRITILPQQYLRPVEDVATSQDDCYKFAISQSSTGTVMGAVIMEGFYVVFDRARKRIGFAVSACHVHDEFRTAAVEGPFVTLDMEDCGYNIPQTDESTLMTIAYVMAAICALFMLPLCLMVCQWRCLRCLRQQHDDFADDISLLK

SMILES	inhibition at 10 µM [%]
NC1=N[C@@](c2cc(NC(=O)c3ccc(Cl)cn3)ccc2F)(C(F)F)C(F)(F)CC1 [Compound 1, (S)-N-(3-(6-amino-2-(difluoromethyl)-3,3-difluoro-2,3,4,5-tetrahydropyridin-2-yl)-4-fluorophenyl)-5-chloropicolinamide]	106
NC1=N[C@@](c2cc(NC(=O)c3ccc(F)cn3)ccc2F)(C(F)F)C(F)(F)CC1 [Compound 2, (S)-N-(3-(6-amino-2-(difluoromethyl)-3,3-difluoro-2,3,4,5-tetrahydropyridin-2-yl)-4-fluorophenyl)-5-fluoropicolinamide]	100
COc1cnc(C(=O)Nc2ccc(F)c([C@@]3(C(F)F)N=C(N)CCC3(F)F)c2)cn1 [Compound 3]	103
Cc1nc(C(=O)Nc2ccc(F)c([C@@]3(C(F)F)N=C(N)CCC3(F)F)c2)co1 [Compound 4, (S)-N-(3-(6-amino-2-(difluoromethyl)-3,3-difluoro-2,3,4,5-tetrahydropyridin-2-yl)-4-fluorophenyl)-2-methyloxazole-4-carboxamide]	104
COc1ccc(C(=O)Nc2ccc(F)c([C@@]3(C(F)F)N=C(N)CCC3(F)F)c2)nc1 [Compound 5, (S)-N-(3-(6-amino-2-(difluoromethyl)-3,3-difluoro-2,3,4,5-tetrahydropyridin-2-yl)-4-fluorophenyl)-5-methoxypicolinamide]	101
NC1=N[C@@](c2cc(NC(=O)c3cnc(C(F)F)cn3)ccc2F)(C(F)F)C(F)(F)CC1 [Compound 6, (S)-N-(3-(6-amino-2-(difluoromethyl)-3,3-difluoro-2,3 ,4,5-tetrahydropyridin-2-yl)-4-fluorophenyl)-5-(difluoromethyl)pyrazine-2-carboxamide]	103
Cc1csc(C(=O)Nc2ccc(F)c([C@@]3(C(F)F)N=C(N)CCC3(F)F)c2)n1 [Compound 8, (S)-N-(3-(6-amino-2-(difluoromethyl)-3,3-difluoro-2,3,4,5-tetrahydropyridin-2-yl)-4-fluoro-phenyl)-4-methylthiazole-2-carboxamide]	102
COc1cnc(C(=O)Nc2ccc(F)c([C@@]3(C(F)F)N=C(N)CCC3(F)F)c2)nc1 [Compound 9, (S)-N-(3-(6-amino-2-(difluoromethyl)-3,3-difluoro-2,3,4,5-tetrahydropyridin-2-yl)-4-fluorophenyl)-5-methoxypyrimidine-2-carboxamide]	103
COc1cnc(C(=O)Nc2ccc(F)c([C@@]3(C(F)F)N=C(N)CCC3(F)F)c2)c(C)n1 [Compound 10, (S)-N-(3-(6-amino-2-(difluoromethyl)-3,3-difluoro-2,3,4,5-tetrahydropyridin-2-yl)-4-fluorophenyl)-5-methoxy-3-methylpyrazine-2-carboxamide]	106
[2H]C([2H])([2H])Oc1ccc(C(=O)Nc2ccc(F)c([C@@]3(C(F)F)N=C(N)CCC3(F)F)c2)nc1 [Compound 13, (S)-N-(3-(6-amino-2-(difluoromethyl)-3,3-difluoro-2,3,4,5-tetrahydropyridin-2-yl)-4-fluorophenyl)-5-(methoxy-d3)picolinamide]	103
[2H]C([2H])([2H])Oc1cnc(C(=O)Nc2ccc(F)c([C@@]3(C(F)F)N=C(N)CCC3(F)F)c2)cn1 [Compound 14, (S)-N-(3-(6-amino-2-(difluoromethyl)-3,3-difluoro-2,3,4,5-tetrahydropyridin-2-yl)-4-fluorophenyl)-5-(methoxy-d3)pyrazine-2-carboxamide]	108
